Assay results published in US20060211765A1, “Novel compounds” (ASTRAZENECA AB, priority 2003, published 2006).

Target: T1, rhCRTh2 (Homo sapiens, UniProt Q9Y5Y4)
T1 construct: expressed in transfected cells; host or cells: HEK cells (membrane preparation)
T1 sequence (Q9Y5Y4 1-395): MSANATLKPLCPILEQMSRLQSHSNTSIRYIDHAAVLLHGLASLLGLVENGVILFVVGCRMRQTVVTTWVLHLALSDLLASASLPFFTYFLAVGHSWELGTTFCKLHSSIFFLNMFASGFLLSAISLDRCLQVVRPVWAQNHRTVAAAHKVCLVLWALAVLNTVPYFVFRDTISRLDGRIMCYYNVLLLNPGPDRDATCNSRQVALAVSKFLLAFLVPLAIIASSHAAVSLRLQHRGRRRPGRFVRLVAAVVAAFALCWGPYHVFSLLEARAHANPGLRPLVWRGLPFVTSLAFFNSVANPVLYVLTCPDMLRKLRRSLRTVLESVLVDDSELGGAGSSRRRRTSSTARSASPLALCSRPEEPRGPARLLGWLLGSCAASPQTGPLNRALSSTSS
Assay: Ligand Binding Assay ([3H]PGD2 SPA on HEK cell membranes)
Conditions: [3H]PGD2 displacement, HEK cell membranes expressing rhCRTh2/Gα16, SPA beads
Experimental: [^3H]PGD2 was purchased from Perkin Elmer Life Sciences with a specific activity of 100-210 Ci/mmol. All other chemicals were of analytical grade.
HEK cells expressing rhCRTh2/Gα16 were routinely maintained in DMEM containing 10% Foetal Bovine Serum (HyClone), 1 mg/ml geneticin, 2 mM L-glutamine and 1% non-essential amino acids. For the preparation of membranes, the adherent transfected HEKcells were grown to confluence in two layer tissue culture factories (Fisher, catalogue number TKT-170-070E). Maximal levels of receptor expression were induced by addition of […] sodium butyrate for the last 18 hours of culture. […] The final pellet was re-suspended in 4 ml of membrane homogenisation buffer per cell factory used and the protein content determined. […]
All assays were performed in Corning clear bottomed, white 96-well NBS plates (Fisher). […] (The optimum coating concentrations were determined for each batch of membranes) The beads were pelleted by centrifugation (800×g for 7 minutes at 4° C.), washed once with assay buffer (50 mM HEPES pH 7.4 containing 5 mM magnesium chloride) and finally re-suspended in assay buffer at a bead concentration of 10 mg/ml. […]

SMILES	IC50
CCc1ccc(OCC(=O)O)c(-c2ccc(S(C)(=O)=O)cc2)c1 [Example 2, {[5-Ethyl-4′-(methylsulfonyl)biphenyl-2-yl]oxy}acetic acid]	79.4 nM
CCS(=O)(=O)c1ccc(-c2cc(OC)ccc2OCC(=O)O)cc1 [Example 3, {[4′-(Ethylsulfonyl)-5-methoxybiphenyl-2-yl]oxy}acetic acid]	251 nM
